In patent US9932349B2 (priority 2000, dated 2018):
Read-outs that look alike come from different tables or passages of the source.

Experiments:
δ opioid receptor = molecular target: T1, δ opioid receptor (Cavia porcellus, UniProt A0A286XTF2); assay: biochemical; assay type: binding, guinea pig
T1 construct: determined in guinea pig brain cells; from tissue; host or cells: guinea pig brain

κ opioid receptor = molecular target: T2, κ opioid receptor (Cavia porcellus, UniProt P41144); assay: biochemical; assay type: binding, guinea pig
T2 construct: determined in guinea pig brain cells; from tissue; host or cells: guinea pig brain
T2 sequence (P41144 whole entry): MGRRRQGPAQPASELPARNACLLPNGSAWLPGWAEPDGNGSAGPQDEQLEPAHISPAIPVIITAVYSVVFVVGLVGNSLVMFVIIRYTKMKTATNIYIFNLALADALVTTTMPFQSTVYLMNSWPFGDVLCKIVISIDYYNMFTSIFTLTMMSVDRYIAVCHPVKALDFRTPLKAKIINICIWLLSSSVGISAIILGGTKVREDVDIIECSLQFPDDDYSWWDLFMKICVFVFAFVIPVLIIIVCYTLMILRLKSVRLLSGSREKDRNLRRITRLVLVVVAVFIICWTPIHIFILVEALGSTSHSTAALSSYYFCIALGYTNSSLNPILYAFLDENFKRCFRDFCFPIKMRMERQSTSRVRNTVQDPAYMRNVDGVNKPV

T1 sequence (A0A286XTF2 1-366): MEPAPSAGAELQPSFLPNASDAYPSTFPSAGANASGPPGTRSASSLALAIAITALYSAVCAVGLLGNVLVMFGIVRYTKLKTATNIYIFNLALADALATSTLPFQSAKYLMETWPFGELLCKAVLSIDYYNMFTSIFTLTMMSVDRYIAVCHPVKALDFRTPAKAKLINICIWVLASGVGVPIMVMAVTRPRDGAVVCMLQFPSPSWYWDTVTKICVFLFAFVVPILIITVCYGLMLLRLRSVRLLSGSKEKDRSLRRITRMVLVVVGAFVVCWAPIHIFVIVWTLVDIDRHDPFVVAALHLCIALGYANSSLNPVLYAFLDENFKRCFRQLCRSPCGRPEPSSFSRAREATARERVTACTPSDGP

CC1C2Cc3ccc(CN)cc3C1(C)CCN2CC1CC1 (mixture of isomers) [Example 15, (±)-[3-(Cyclopropylmethyl)-1,2,3,4,5,6,-hexahydro-cis-6,11-dimethyl-2,6-methano-3-benzazocin-8-yl]-methylamine]
Ki (δ opioid receptor; Ki [3H] Naltrindole (δ)): 390 ± 47 nM | Ki (κ opioid receptor; Ki [3H] U69,593 (κ)): 17 ± 2.9 nM

CC1C2Cc3ccc(NC=O)cc3C1(C)CCN2CC1CC1 (mixture of isomers) [Example 19, (±)-N-[3-(Cyclopropylmethyl)-1,2,3,4,5,6,-hexahydro-cis-6,11-dimethyl-2,6-methano-3-benzazocin-8-yl]-formamide]
Ki (δ opioid receptor; read-out: Ki [3H] Naltrindole (δ)): 37 ± 3.9 nM | Ki (κ opioid receptor; read-out: Ki [3H] U69,593 (κ)): 0.85 ± 0.08 nM

CC[C@@]12CCN(CC3CC3)C(C(=O)c3ccc(O)cc31)C2C (mixture of isomers) [(±)-EKC, Ethylketocyclazocine, reference compound]
Ki (δ opioid receptor; [3H] Naltrindole (δ)): 3.4 ± 0.41 nM

C[C@H]1C2Cc3ccc(C#N)cc3[C@@]1(C)CCN2CC1CC1 (racemic) [Example 1, (±)-3-(Cyclopropylmethyl)-1,2,3,4,5,6-hexahydro-cis-6,11-dimethyl-2,6-methano-3-benzazocin-8-carbonitrile]
Ki (δ opioid receptor; Ki [3H] Naltrindole (δ)): 2700 ± 1400 nM | Ki (κ opioid receptor; Ki [3H] U69,593 (κ)): 71 ± 13 nM

C[C@H]1[C@H]2Cc3ccc(C(=O)O)cc3[C@]1(C)CCN2CC1CC1 (racemic) [Example 2]
Ki (δ opioid receptor; Ki [3H] Naltrindole (δ)): 320 ± 14 nM | Ki (κ opioid receptor; Ki [3H] U69,593 (κ)): 31 ± 0.87 nM

COC(=O)c1ccc2c(c1)[C@@]1(C)CCN(CC3CC3)C(C2)[C@@H]1C (racemic) [Example 3, (±)-3-(Cyclopropylmethyl)-1,2,3,4,5,6,-hexahydro-cis-6,11-dimethyl-2,6-methano-3-benzazocin-8-carboxylic acid methyl ester]
Ki (δ opioid receptor; Ki [3H] Naltrindole (δ)): 59 ± 2.1 nM | Ki (κ opioid receptor; Ki [3H] U69,593 (κ)): 2 ± 0.21 nM

C[C@H]1C2Cc3ccc(C(N)=S)cc3[C@@]1(C)CCN2CC1CC1 (racemic) [Example 5, (±)-3-(Cyclopropylmethyl)-1,2,3,4,5,6-hexahydro-cis-6,11-dimethyl-2,6-methano-3-benzazocin-8-thiocarboxamide]
Ki (δ opioid receptor; Ki [3H] Naltrindole (δ)): 4 ± 0.48 nM | Ki (κ opioid receptor; Ki [3H] U69,593 (κ)): 0.67 ± 0.01 nM

C[C@H]1[C@H]2Cc3ccc(C(=O)NO)cc3[C@]1(C)CCN2CC1CC1 (racemic) [Example 6]
Ki (δ opioid receptor; Ki [3H] Naltrindole (δ)): 210 ± 40 nM | Ki (κ opioid receptor; Ki [3H] U69,593 (κ)): 6.9 ± 0.61 nM

COc1ccc(CNC(=O)c2ccc3c(c2)[C@]2(C)CCN(CC4CC4)[C@H](C3)[C@@H]2C)cc1 (racemic) [Example 10]
Ki (δ opioid receptor; Ki [3H] Naltrindole (δ)): 150 ± 17 nM | Ki (κ opioid receptor; Ki [3H] U69,593 (κ)): 110 ± 3.1 nM

C[C@H]1[C@H]2Cc3ccc(C(=O)NCCCN(C)C)cc3[C@]1(C)CCN2CC1CC1 (racemic) [Example 12]
Ki (δ opioid receptor; Ki [3H] Naltrindole (δ)): 3000 ± 230 nM | Ki (κ opioid receptor; Ki [3H] U69,593 (κ)): 310 ± 64 nM

CC1[C@@H]2Cc3ccc(C(=N)NO)cc3[C@@]1(C)CCN2CC1CC1 (mixture of isomers) [Example 14, (±)-3-(Cyclopropylmethyl)-1,2,3,4,5,6-hexahydro-N-hydroxy-cis-6,11-dimethyl-2,6-methano-3-benzazocin-8-carboxamidine]
Ki (δ opioid receptor; Ki [3H] Naltrindole (δ)): 16 ± 0.67 nM | Ki (κ opioid receptor; Ki [3H] U69,593 (κ)): 0.9 ± 0.15 nM

C[C@H]1C2Cc3ccc(CO)cc3[C@@]1(C)CCN2CC1CC1 (racemic) [Example 16, (±)-[3-(Cyclopropylmethyl)-1,2,3,4,5,6,-hexahydro-cis-6,11-dimethyl-2,6-methano-3-benzazocin-8-yl]-methanol]
Ki (δ opioid receptor; Ki [3H] Naltrindole (δ)): 210 ± 29 nM | Ki (κ opioid receptor; Ki [3H] U69,593 (κ)): 7.6 ± 0.8 nM

C[C@H]1[C@H]2Cc3ccc(NS(C)(=O)=O)cc3[C@]1(C)CCN2CC1CC1 (racemic) [Example 21]
Ki (δ opioid receptor; Ki [3H] Naltrindole (δ)): 780 ± 170 nM | Ki (κ opioid receptor; Ki [3H] U69,593 (κ)): 21 ± 1.5 nM

C[C@H]1[C@H]2C(=O)c3ccc(C(N)=O)cc3[C@]1(C)CCN2CC1CC1 (relative stereo) [Example 23]
Ki (δ opioid receptor; [3H] Naltrindole (δ)): 20 ± 2.3 nM | Ki (κ opioid receptor; [3H] U69,593 (κ)): 1.8 ± 0.1 nM

CC1C2Cc3ccc(C(N)=O)cc3C1(C)CCN2CC1CC1 (single isomer, unassigned) [Example 4a]
Ki (δ opioid receptor; Ki [3H] Naltrindole (δ)): 2.6 ± 0.6 nM

CC1C2Cc3ccc(C(N)=O)cc3C1(C)CCN2CC1CC1 (single isomer, unassigned) [Example 4b]
Ki (δ opioid receptor; Ki [3H] Naltrindole (δ)): 570 ± 50 nM

CC1C2Cc3ccc(C(=O)NN)cc3C1(C)CCN2CC1CC1 (stereo not shown) [Example 7]
Ki (κ opioid receptor; Ki [3H] U69,593 (κ)): 19 ± 1.4 nM

Oc1ccc2c3c1O[C@H]1c4[nH]c5ccccc5c4C[C@@]4(O)[C@@H](C2)N(CC2CC2)CC[C@]314 [naltrindole (3-OH), Naltrindole, reference compound]
Ki (κ opioid receptor; [3H] U69,593 (κ)): 4.6 ± 0.23 nM
